Test system: antigen specific CD8+ T cells
Test: Addition of IL-21 to NEO-STIM.RNA cultures
Assay type: cell-based, human
Text: In order to improve the NEO-STIM protocol using RNA, IL-21 was explored as an addition to the protocol.
In order to improve the NEO-STIM protocol using RNA, IL-21 was explored as an addition to the protocol. […] Using IL-21 in NEO-STIM increases central memory phenotype in antigen specific CD8^+ T cells.

Question: Which “effect on expansion of T cells” value (NEO-STIM process using RNA encoded neoantigenic epitopes) does the source give for “IL-21: cytokine added to the NEO-STIM protocol using RNA” here?
Answer: improves expansion of T cells

Question: And the “effect on central memory phenotype in antigen specific CD8+ T cells” value (NEO-STIM.RNA cultures)?
Answer: increases the central memory phenotype

Question: And the “effect on priming of specific T cells” value (NEO-STIM.RNA cultures)?
Answer: improves the priming of specific T cells
